Measured values taken from patent US20090042912A1, “DIPHENYLIMIDAZOLYL COMPOUNDS AS INHIBITORS OF beta-SECRETASE” (Wyeth, priority 2004, published 2009).
Where two headings read alike, the source gives them in different places.

Experiments:
[1] = biological target: T1, human BACE2 (Homo sapiens, UniProt Q9Y5Z0); assay: Fluorescent kinetic assay for human recombinant BACE 2 (WABC-6 peptide substrate); type: biochemical; conditions: for inhibition at 25 µM: read-out: BACE2. % inhibition; for IC50: 1.5 nM enzyme, 25 μM substrate, pH 4.5, room temperature
T1 sequence (Q9Y5Z0 63-518): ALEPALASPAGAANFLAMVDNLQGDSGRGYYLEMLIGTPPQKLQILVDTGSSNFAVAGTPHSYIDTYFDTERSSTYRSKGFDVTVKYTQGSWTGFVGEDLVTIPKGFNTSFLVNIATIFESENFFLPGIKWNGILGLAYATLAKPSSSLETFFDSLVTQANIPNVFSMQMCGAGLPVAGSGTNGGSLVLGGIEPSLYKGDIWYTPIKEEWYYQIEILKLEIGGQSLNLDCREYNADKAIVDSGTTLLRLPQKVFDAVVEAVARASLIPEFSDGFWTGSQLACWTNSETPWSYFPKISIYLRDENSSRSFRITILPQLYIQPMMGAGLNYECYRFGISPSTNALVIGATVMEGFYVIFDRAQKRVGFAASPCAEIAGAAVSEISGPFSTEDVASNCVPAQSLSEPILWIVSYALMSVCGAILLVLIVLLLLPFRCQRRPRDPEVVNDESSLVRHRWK
Method: Fluorescent Kinetic Assay for Human Recombinant BACE 2
This assay is used to provide kinetic and selectivity parameters for the analyses of the tested compounds.
Temperature: room temperature.
Dilution and Mixing Steps: Total Reaction Volume.: 100 μL • 1.
Readings at λex 320 nm, λem 420 nm are taken every 40-sec for 30 min at room temperature and to determine the linear slope for substrate cleavage rate (vi).

[2] = biological target: human BACE1 (Homo sapiens, UniProt P56817); assay: Fluorescent kinetic assay, inhibition of BACE1 (WABC-6 peptide substrate); type: biochemical
Method: Evaluation of the Enzyme Activity of Test Compounds and the Inhibition of hBACE1, MuBACE1 and hBACE2 by Test Compounds
The concentration is determined by absorbance at 354 nm using an extinction coefficient ε of 18172 M^−1cm^−1, The substrate stock is stored in small aliquots at −80° C. [Substrate Stock]=ABS^354 nm*10^6/18172 ([…])
Dilution and mixing steps: total reaction volume: 100 μL • 1. 2× inhibitor dilutions in buffer A (66.7 mM Na-Acetate, pH 4.5, 0.0667% CHAPS) are prepared, • 2. 4× enzyme dilution in buffer A (66.7 mM Na-Acetate, pH 4.5, 0.0667% CHAPS) are prepared, • 3. 100 μM substrate dilution in 1× PBS is prepared, • 4. 50 μL 2× Inhibitor and 25 μL 100 μM substrate are added to each well of 96-well plate (from DYNEX Technologies, VWR #: 11311-046), the immediately 25 μL 4× enzyme are added to the inhibitor and substrate mixer, the fluorescence readings are initiated.
Readings at λex 320 nm and λem 420 nm are taken every 40-sec for 30 min at room temperature to determine the linear slope for substrate cleavage rate (vi).

[3] = 10 nM enzyme, 25 μM substrate, pH 4.5, room temperature, read-out: IC50 (μM) BACE1.

Sequence of human BACE1 (P56817 46-501): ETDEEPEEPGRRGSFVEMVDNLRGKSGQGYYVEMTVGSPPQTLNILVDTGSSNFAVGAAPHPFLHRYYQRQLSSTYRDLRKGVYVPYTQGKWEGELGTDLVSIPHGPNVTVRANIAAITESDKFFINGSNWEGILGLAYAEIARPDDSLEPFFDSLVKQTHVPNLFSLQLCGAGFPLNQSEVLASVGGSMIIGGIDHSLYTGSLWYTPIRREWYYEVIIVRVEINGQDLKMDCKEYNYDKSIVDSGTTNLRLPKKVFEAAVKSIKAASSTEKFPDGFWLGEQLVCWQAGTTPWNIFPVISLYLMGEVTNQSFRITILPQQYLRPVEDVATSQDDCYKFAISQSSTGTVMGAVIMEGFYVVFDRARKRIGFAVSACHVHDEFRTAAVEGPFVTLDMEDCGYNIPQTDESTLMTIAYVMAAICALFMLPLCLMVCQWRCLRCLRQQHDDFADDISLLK

Row | inhibition at 25 µM ([1]; at 25 μM) [%] | melting point [°C] | IC50 [2, 3] [µM] | IC50 [1] [µM] | SMILES | also measured
1 | 35 |  |  |  | NC1=N[C@](c2ccc(OC(F)(F)F)cc2)(c2cccc(-c3cccnc3F)c2)C2=NCCCN12 (single isomer, unassigned) [Example 30A] | 
2 | 25 |  |  |  | NC1=NC(c2ccc(OC(F)(F)F)cc2)(c2cccc(-c3ccc[n+]([O-])c3F)c2)C2=NCCCN12 (stereo not shown) [Example 34, 8-[3-(2-Fluoro 1-oxy-pyridin-3-yl)-phenyl]-8-(4-trifluoromethoxy-phenyl)-2,3,4,8-tetrahydro-imidazo[1,5-a]pyrimidin-6-ylamine] | 
3 |  | 83 to 97 |  |  | NC1=NC(c2ccc(OC(F)(F)F)cc2)(c2cccc(-c3cnccc3F)c2)C2=NCCCN12 (stereo not shown) [Example 27, 8-[3-(4-fluoropyridin-3-yl)phenyl]-8-[4-(trifluoromethoxy)phenyl]-2,3,4,8-tetrahydroimidazo[1,5-a]pyrimidin-6-amine] | 
4 | 25 | 105 to 115 | 0.15 |  | NC1=NC(c2ccc(OC(F)(F)F)cc2)(c2ccc(F)c(-c3cncnc3)c2)C2=NCCCN12 (stereo not shown) [Example 13, 8-{[(4-Fluoro-3-pyrimidin-5-yl)phenyl]-8-[4-(trifluoromethoxy)phenyl]-2,3,4,8-tetrahydroimidazo[1,5-a]pyrimidin-6-yl}amine] | 
5 |  | 105 to 115 |  | 11.4 | NC1=NC(c2ccc(OC(F)(F)F)cc2)(c2cccc(-c3cccnc3F)c2)C2=NCCCN12 (stereo not shown) [Example 17, 8-[3-(2-fluoropyridin-3-yl)phenyl]-8-[4-(trifluoromethoxy)phenyl]-2,3,4,8-tetrahydroimidazo[1,5-a]pyrimidin-6-amine] | 
6 |  | 106 to 119 |  |  | NC1=NC(c2cccc(-c3cccnc3F)c2)(c2ccc3c(c2)OCO3)C2=NCCCN12 (stereo not shown) [Example 40, 8-Benzo[1,3]dioxol-5-yl-8-[3-(2-fluoro-pyridin-3-yl)-phenyl]-2,3,4,8-tetrahydro-imidazo[1,5-a]pyrimidin-6-ylamine] | IC50 ([2]; read-out: IC50 (μM) BACE1.): 0.16 µM
7 |  |  | 0.029 | 0.272 | NC1=N[C@@](c2ccc(OC(F)(F)F)cc2)(c2cccc(-c3cncc(Cl)c3)c2)C2=NCCCN12 [Example 32A, (8S)-8-[3-(5-Chloropyridin-3-yl)phenyl]-8-[4-(trifluoromethoxy)-phenyl]-2,3,4,8-tetrahydroimidazo[1,5-a]pyrimidin-6-amine] | 
8 | 53 | 95 to 99 | 0.74 |  | NC1=NC(c2cccc(-c3cccnc3F)c2)(c2ccc3c(c2)OC(F)(F)O3)C2=NCCCN12 (stereo not shown) [Example 43, 8-(2,2-Difluoro-benzo[1,3]dioxol-5-yl)-8-[3-(2-fluoro-pyridin-3-yl)-phenyl]-2,3,4,8-tetrahydro-imidazo[1,5-a]pyrimidin-6-ylamine] | 
9 |  | 94 to 102 | 0.06 | 4.68 | NC1=NC(c2ccc(OC(F)(F)F)cc2)(c2cccc(-c3cc(F)cnc3F)c2)C2=NCCCN12 (stereo not shown) [Example 28] | 
10 |  |  |  | 10.4 | NC1=N[C@](c2ccc(OC(F)(F)F)cc2)(c2cccc(-c3cncnc3)c2)C2=NCCCN12 (single isomer, unassigned) [Example 31A] | 
11 | 34 |  |  |  | NC1=N[C@](c2ccc(OC(F)(F)F)cc2)(c2cccc(-c3cncc(Cl)c3)c2)C2=NCCCN12 [Example 32B, (8R)-8-[3-(5-Chloropyridin-3-yl)phenyl]-8-[4-(trifluoromethoxy)-phenyl]-2,3,4,8-tetrahydroimidazo[1,5-a]pyrimidin-6-amine] | inhibition at 5 µM [2]: 19%
12 |  |  | 0.01 | 0.7 | NC1=N[C@](c2ccc(OC(F)F)cc2)(c2cccc(-c3cccnc3F)c2)C2=NCCCN12 [Example 45A, (8R)-8-(4-Difluoromethoxy-phenyl)-8-[3-(2-fluoro-pyridin-3-yl)-phenyl]-2,3,4,8-tetrahydro-imidazo[1,5-a]pyrimidin-6-ylamine] | 
13 |  | 227 to 231 |  |  | N#CNC1=NC(c2ccc(OC(F)(F)F)cc2)(c2cccc(-c3cncnc3)c2)C2=NCCCN12 (stereo not shown) [Example 29, 8-(3-Pyrimidin-5-yl-phenyl)-8-(4-trifluoromethoxy-phenyl)-2,3,4,8-tetrahydro-imidazo[1,5-a]pyrimidin-6-yl-cyanamide] | 
14 | 44 | 99 to 122 | 0.1 |  | NC1=NC(c2ccc(OC(F)(F)F)cc2)(c2ccc(F)c(-c3cccnc3F)c2)C2=NCCCN12 (stereo not shown) [Example 15, 8-[4-fluoro-3-(2-fluoropyridin-3-yl)phenyl]-8-[4-(trifluoromethoxy)phenyl]-2,3,4,8-tetrahydroimidazo[1,5-a]pyrimidin-6-amine] | 
15 | 52 |  | 0.15 |  | CC1(C)CN2C(N)=NC(c3ccc(OC(F)(F)F)cc3)(c3cccc(-c4cccnc4F)c3)C2=N1 (stereo not shown) [Example 42, 7-[3-(2-Fluoropyridin-3-yl)phenyl]-2,2-dimethyl-7-(4-trifluoromethoxyphenyl)-2,7-dihydro-3H-imidazo[1,5-a]imidazol-5-ylamine] | 
16 | 25 |  |  |  | NC1=N[C@](c2ccc(OC(F)(F)F)cc2)(c2cccc(-c3cnccc3F)c2)C2=NCCCN12 [Example 33B, (8R)-8-[3-(4-fluoropyridin-3-yl)phenyl]-8-[4-(trifluoromethoxy)phenyl]-2,3,4,8-tetrahydroimidazo[1,5-a]pyrimidin-6-amine] | inhibition at 5 µM [2]: 43%
17 | 60 |  |  |  | NC1=N[C@@](c2ccc(OC(F)F)cc2)(c2cccc(-c3cccnc3F)c2)C2=NCCCN12 [Example 45B, (8S)-8-(4-Difluoromethoxy-phenyl)-8-[3-(2-fluoro-pyridin-3-yl)-phenyl]-2,3,4,8-tetrahydro-imidazo[1,5-a]pyrimidin-6-ylamine] | inhibition at […] ([2]; at 2.5 uM): 49%
18 | 60 | 136 to 140 |  |  | COc1ccc(C2(c3cccc(-c4cncnc4)c3)N=C(N)N3CCCN=C32)cc1 (stereo not shown) [Example 22, 8-(4-methoxyphenyl)-8-(3-pyrimidin-5-ylphenyl)-2,3,4,8-tetrahydroimidazo[1,5-a]pyrimidin-6-amine] | 
19 |  |  | 0.05 | 4 | NC1=N[C@@](c2ccc(OC(F)(F)F)cc2)(c2cccc(-c3cnccc3F)c2)C2=NCCCN12 [Example 33A, (8S)-8-[3-(4-fluoropyridin-3-yl)phenyl]-8-[4-(trifluoromethoxy)-phenyl]-2,3,4,8-tetrahydroimidazo[1,5-a]pyrimidin-6-amine] | 
20 |  |  |  | 3.79 | NC1=N[C@@](c2ccc(OC(F)(F)F)cc2)(c2cccc(-c3cccnc3F)c2)C2=NCCCN12 (single isomer, unassigned) [Example 30B] | 
21 |  |  |  |  | NC1=N[C@@](c2ccc(OC(F)(F)F)cc2)(c2cccc(-c3cncnc3)c2)C2=NCCCN12 (single isomer, unassigned) [Example 31B] | inhibition at 25 µM [1]: 28%
22 | 50 |  | 0.23 |  | NC1=NC(c2ccc(OC(F)(F)F)cc2)(c2cccc(-c3cncnc3)c2)c2nccn21 (stereo not shown) [Example 5] | 
23 |  |  |  | 10.8 | NC1=NC(c2ccc(OC(F)(F)F)cc2)(c2cccc(-c3cccnc3F)c2)C2=NCCCCCN12 (stereo not shown) [Example 37, 1-[3-(2-Fluoro-pyridin-3-yl)-phenyl]-1-(4-trifluoromethoxy-phenyl)-1,4,5,6,7,8-hexahydro-2,3a,9-triaza-cyclopentacycloocten-3-ylamine] | 

Row | SMILES | inhibition at 25 µM ([1]; at 25 μM) [%] | melting point [°C] | IC50 [2, 3] [µM] | IC50 [1] [µM] | also measured
24 | NC1=NC(c2ccc(OC(F)(F)F)cc2)(c2cccc(-c3cncnc3)c2)C2=NCCCN12 (stereo not shown) [Example 16, 8-(3-pyrimidin-5-ylphenyl)-8-[4-(trifluoromethoxy)phenyl]-2,3,4,8-tetrahydroimidazo[1,5-a]pyrimidin-6-amine] |  | 214 to 218 |  |  | inhibition at 25 µM [1]: 49%
25 | NC1=NC(c2ccc(OC(F)(F)F)cc2)(c2cccc(-c3cccnc3F)c2)C2=NCCCCN12 (stereo not shown) [Example 36, 9-[3-(2-Fluoro-pyridin-3-yl)-phenyl]-9-(4-trifluoromethoxy-phenyl)-2,4,5,9-tetrahydro-3H-imidazo[1,5-a][1,3]diazepin-7-ylamine] |  |  |  | 7.32 | IC50 [2]: 0.071 µM
